Source: US7745401B2, “Antifungal peptides and methods of use thereof” (The Board of Regents of the University of Oklahoma, priority 2005, dated 2010)
“Also recorded” adds a separate entry of the source. Where no end group is shown, it is not given here.

B1: RANTES: Regulated upon Activation Normal T cell Expressed and Secreted protein, isolated from human platelets (protein, UniProt P13501 24-91, looked up)
C-C motif chemokine 5: SPYSSDTTPCCFAYIARPLPRAHIKEYFYTSGKCSNPAVVFVTRKNRQVCANPEKKWVREYINSLEMS
B2: PF-4: platelet factor-4, isolated from human platelets (protein, UniProt P02776 32-101, looked up)
Platelet factor 4: EAEEDGDLQCLCVKTTSQVRPRHITSLEVIKAGPHCPTAQLIATLKNGRKICLDLQAPLYKKIIKKLLES
B3: CAP37: cationic antimicrobial protein of Mr 37 kDa of the human neutrophil (protein)
chain: IVGGRKARPRQFPFLASIQNQGRHFCGGALIHARFVMTAASCFQSQNPGVSTVVLGAYDLRRRERQSRQTFSISSMSENGYDPQQNLNDLMLLQLDREANLTSSVTILPLPLQNATVEAGTRCQVAGWGSQRSGGRLSRFPRFVNVTVTPEDQCRPNNVCTGVLTRRGGICNGDGGTPLVCEGLAHGVASFSLGPCGRGPDFFTRVALFRDWIDGVLNNPGP

How the values were obtained:
[1] = test system: Candida albicans; assay type: cell-based; details: for activity against C. albicans: in vitro killing efficacy; for activity against fluconazole resistant isolates: isolates A-5 and A-20; for activity against fluconazole sensitive isolates: isolates A-155, A-22 and A-111, 400 μg/ml; for killing of blood isolate of Candida: blood isolate of C. albicans, 400 μg/ml (150 μM); for peptide concentration required for activity: fluconazole resistant isolate A-46; for activity at the lower concentration: fluconazole resistant isolates A-5 and A-20, 200 μg/ml or 75 μM; for fungicidal or fungistatic effect: isolates A-5, A-20, A-46 and A-155, viable colony counts versus starting inoculum
Description: (§1) Isolates used in this study included Candida albicans (ATCC 28367), three fluconazole sensitive mucosal isolates of C. albicans, designated A-22, A-111 and A-155, three fluconazole resistant mucosal isolates of C. albicans designated A-46, A-5, and A-20, and a blood isolate of C. albicans designated WDO. Isolates were stored frozen at −70° C. and streaked onto Sabouraud Dextrose Agar (Sigma, St. Louis, Mo.) plates and maintained on plates at 4° C., with subculturing onto new plates approximately every 10 days for the duration of the studies. Fluconazole resistance was evaluated. Three clinical isolates of C. glabrata, two clinical isolates of C. dubliniensis, and single isolate each of C. krusei, C. guilliermondii, C. parapsilosis, C. pseudotropicalis and C. tropicalis and two isolates of Saccharomyces cerevisiae were also used in this study and were maintained on Sabouraud Dextrose agar plates at 4° C. A single yeast colony was cultured overnight at 33° C. in 1% phytone peptone broth (Becton Dickinson, Sparks Md.) with 0.1% D-glucose (Sigma).
Stock solutions of all peptides were made up at concentrations of 1 mg/ml in sterile endotoxin-free water for irrigation (Baxter, Deerfield, Ill.). Subsequent dilutions were all made in tryptone saline pH 5.5 (Shafer et al., Infect Immun, 1984). An aliquot (100 μl) of an overnight culture of a single colony grown at 33° C. in 1% phytone peptone broth with 0.1% glucose was subcultured in 5 ml of 1% phytone peptone broth with 0.1% glucose and incubated in a shaking water bath (80 oscillations per min, Precision, Winchester, Va.) for 90 min at 33° C. to yield a logarithmic culture. […] The optical density was read and the culture adjusted to 500 blastospores/100 μl in tryptone saline pH 5.5 (Shafer et al., Infect Immun, 1984). To 100 μl of the organism suspension in a 96 well sterile polystyrene microtiter plate (Becton Dickinson, Franklin Lakes, N.J.) was added 100 μl of the peptide (final concentrations 400 μg/ml and 200 μg/ml) or 100 μl of tryptone saline. The latter served as a control. The microtiter plate was incubated at 37° C. for 4 hr and 100 μl of the contents from each well was plated on Sabouraud Dextrose agar plates and incubated at 37° C. overnight. The colony forming units (cfu) were counted and the fungicidal activity was expressed as percent killed and calculated according to the following equation: [(control cfu−test cfu)/control cfu]×100=% killed. Control cfu is indicated by the number of colonies present after […] of incubation in tryptone saline alone in the absence of peptide. Test cfu is determined by counting the number of colonies present after incubation in tryptone saline containing the peptide. Each experimental point was performed in triplicate.
C. albicans (ATCC 28367) was used to standardize the in vitro killing assay. We explored the optimal growth conditions (temperature and time, 25° C. for 5 h and 33° C. for 90 min), numbers of blastospores per well (200, 400, 500, 600, 800, and 1000 cfu), range of peptide concentrations (750, 500, 400, 200 and 100 μg/ml) and the contact time between peptide and Candida (1, 2 and 4 hr) for killing to occur. […] The 90 minute incubation was more convenient technically and was therefore employed routinely. The optimum numbers of cfu per well was determined to be 500 and an incubation time of 4 hr at 37° C. between Candida and peptide was required to obtain optimal killing.

[2] = test system: C. guilliermondii; experiment: In vitro candidacidal assay, C. guilliermondii; assay type: cell-based; details: 100 μg/ml (37.5 μM)
Description: (§2) Isolates used in this study included Candida albicans (ATCC 28367), three fluconazole sensitive mucosal isolates of C. albicans, designated A-22, A-111 and A-155, three fluconazole resistant mucosal isolates of C. albicans designated A-46, A-5, and A-20, and a blood isolate of C. albicans designated WDO. Isolates were stored frozen at −70° C. and streaked onto Sabouraud Dextrose Agar (Sigma, St. Louis, Mo.) plates and maintained on plates at 4° C., with subculturing onto new plates approximately every 10 days for the duration of the studies. Fluconazole resistance was evaluated. […]
(§3) Stock solutions of all peptides were made up at concentrations of 1 mg/ml in sterile endotoxin-free water for irrigation (Baxter, Deerfield, Ill.). […] The optical density was read and the culture adjusted to 500 blastospores/100 μl in tryptone saline pH 5.5 (Shafer et al., Infect Immun, 1984). […] The colony forming units (cfu) were counted and the fungicidal activity was expressed as percent killed and calculated according to the following equation: [(control cfu−test cfu)/control cfu]×100=% killed. […] Test cfu is determined by counting the number of colonies present after incubation in tryptone saline containing the peptide. […]

[3] = test system: C. parapsilosis; experiment: In vitro candidacidal assay, C. parapsilosis; assay type: cell-based; details: 100 μg/ml (37.5 μM)
Description: as §2, §3

[4] = test system: C. pseudotropicalis; experiment: In vitro candidacidal assay, C. pseudotropicalis; assay type: cell-based; details: 400 μg/ml (150 μM)
Description: as §2, §3

[5] = test system: C. albicans (fluconazole sensitive isolate); experiment: FUN-1 vital dye yeast viability, confocal microscopy, C. albicans; assay type: cell-based, Candida albicans; details: 400 μg/ml, 37° C. for 2 hr
Description: (§4) Yeast viability was also assessed using the FUN-1 Live/Dead Yeast Viability Kit (Molecular Probes, Eugene, Oreg.). The methodology employed was essentially according to the protocol provided by the vendor for use with fluorescent microscopy. Briefly, yeast cultures were prepared exactly as stated above. C. glabrata, C. pseudotropicalis, C. albicans (fluconazole sensitive isolate) and S. cerevisiae (5×10^5 cfu in 100 μl of tryptone saline) were incubated (37° C. for 2 hr) in the absence or presence of peptide (CAP37(20-44)nat and CAP37(20-44)ser26/42) at a final concentration of 400 μg/ml. At the end of the incubation period, the samples were transferred to microcentrifuge tubes and centrifuged (10,000×g for 3 min at room temperature). The supernatant was removed and the pellet resuspended in 25 μl of GH solution (2% D-glucose containing 10 mM Na-HEPES, pH 7.2) as described in the technical data sheet provided by the vendor. A working solution of the FUN-1 reagent (100 μl of 10 μM) was prepared from 10 mM stock solution and 25 μl (final concentration 5 μM) added to the yeast and incubated at room temperature for 30 min. A sample (10 μl) was placed on a microscope slide and staining observed under a Leica TCS NT confocal microscope using Ar-488 and Kr-568 Lasers and 63x Plan APO 1.2 NA water immersion objective. Images were scanned and analyzed using the Leica TCS software.

[6] = test system: C. glabrata; experiment: FUN-1 vital dye yeast viability, confocal microscopy, C. glabrata; assay type: cell-based; details: 400 μg/ml, 37° C. for 2 hr
Description: as §4

[7] = test system: S. cerevisiae; experiment: FUN-1 vital dye yeast viability, confocal microscopy, S. cerevisiae; assay type: cell-based, Saccharomyces cerevisiae; details: 400 μg/ml, 37° C. for 2 hr
Description: as §4

[8] = test system: Salmonella typhimurium, Escherichia coli, and Pseudomonas aeruginosa; details: Gram negative organisms; cited from earlier work
[9] = test system: C. tropicalis; experiment: In vitro candidacidal assay, C. tropicalis; assay type: cell-based; details: 400 μg/ml (150 μM)
Description: as §1
as §3, with “Ill.). Subsequent dilutions were all made in tryptone saline pH 5.5 (Shafer et al., Infect Immun, 1984).” for “Ill.).”

[10] = test system: C. dubliniensis; experiment: In vitro candidacidal assay, C. dubliniensis; assay type: cell-based; details: two isolates; 400 μg/ml (150 μM)
Description: as §1
as §3, with “Ill.). Subsequent dilutions were all made in tryptone saline pH 5.5 (Shafer et al., Infect Immun, 1984).” for “Ill.).”

[11] = test system: C. glabrata; experiment: In vitro candidacidal assay, C. glabrata; assay type: cell-based; details: one isolate of three; 400 μg/ml (150 μM)
Description: as §1
as §3, with “Ill.). Subsequent dilutions were all made in tryptone saline pH 5.5 (Shafer et al., Infect Immun, 1984).” for “Ill.).”

[12] = test system: hyphal forms of Candida albicans; experiment: In vitro candidacidal assay on hyphal forms of C. albicans; assay type: cell-based; details: clinical isolates; 400 and 200 μg/ml
Description: To induce hyphal formation a single colony of C. albicans isolates A-5, A-20, A-22, A-46, A-11 and A-155 from a Sabouraud Dextrose agar plate was transferred to 1% phytone peptone broth with 0.1 glucose and grown overnight at 33° C. An aliquot (500 μl) of the overnight culture was subcultured in 5 ml of RPMI-1640 (Celigro Mediatech Inc, Herndon, Va.)) with 10% fetal calf serum (Invitrogen, Grand Island, N.Y.) for 90 min at 37° C. Hyphal formation was determined under phase microscopy.
as §3, with “Ill.). Subsequent dilutions were all made in tryptone saline pH 5.5 (Shafer et al., Infect Immun, 1984).” for “Ill.).”

[13] = test system: Candida; details: peptides isolated from human platelets; cited from earlier work

| Molecule | activity against C. albicans [1] | activity against fluconazole resistant isolates [1] | activity against fluconazole sensitive isolates [1] | bactericidal activity [8] | killing [1] [%] | killing of blood isolate of Candida [1] | peptide concentration required for activity [1] [µg/mL] | activity at the lower concentration [1] | fungicidal or fungistatic effect [1] | activity against C. tropicalis [9] | activity against C. dubliniensis [10] | activity against C. glabrata [11] | candidacidal activity [13] | other results |
| --- | --- | --- | --- | --- | --- | --- | --- | --- | --- | --- | --- | --- | --- | --- |
| NQGRHFSGGALIHARFVMTAASSFQ (NQGRHFSGGALIHARFVMTAASSFQ; listed as Homo sapiens) [CAP37(20-44)ser26/42, cysteines at positions 26 and 42 replaced by serine] | significantly abrogated activity | moderately active | lack of activity | inactive compound | – | – | – | – | – | – | – | – | – | activity against C. guilliermondii [2]: some activity; activity against C. parapsilosis [3]: some activity; activity against C. pseudotropicalis [4]: some activity; blastoconidia alive [5]: 30%; cell viability [6]: virtually all cells were viable; cell viability [7]: virtually all cells were viable |
| NQGRHFSGGALIHARFVMTAASCFQ [CAP37(20-44)ser26, NQGRHFSGGALIHARFVMTAASCFQ] | significant activity | highly active | strongly active | – | > 75 | killed | 400 | significant activity | fungicidal rather than fungistatic | killed | effective against both isolates of C. dubliniensis and one isolate of C. glabrata, although to a lesser extent | effective against both isolates of C. dubliniensis and one isolate of C. glabrata, although to a lesser extent | – | – |
| NQGRHFCGGALIHARFVMTAASSFQ [CAP37(20-44)ser42, NQGRHFCGGALIHARFVMTAASSFQ] | significant activity | highly active | strongly active | – | > 75 | killed | 400 | significant activity | fungicidal rather than fungistatic | killed | more effective against C. dubliniensis than CAP37(20-44)nat; also recorded: effective against both isolates of C. dubliniensis and one isolate of C. glabrata, although to a lesser extent | effective against both isolates of C. dubliniensis and one isolate of C. glabrata, although to a lesser extent | – | activity on hyphal forms of C. albicans [12]: greater activity |
| B1 | – | – | – | – | – | – | – | – | – | – | – | – | exhibited candidacidal activity | – |
| B2 | – | – | – | – | – | – | – | – | – | – | – | – | exhibited candidacidal activity | – |
| B3 | – | – | – | strong bactericidal activity | – | – | – | – | – | – | – | – | – | – |
